1 compound from patent publication US20260250269A1, “APOPTOSIS INHIBITOR SALTS FOR CANCER” (priority 2022, published 2026) can be followed below.

Series [1] has as its system Caspase-3. The series can be described thus: Caspase-3 protein expression in xenografted SU-DHL-10 tumor (Western blot). The format is in vivo, mouse. The note with it: Form A, single i.m. injection 11.2 mg/kg, 24 hours post dosing, versus vehicle. The protocol:
The pamoate was administrated via single intramuscular (i.m.) injection to SU-DHL-10 xenografted mice to examine the effect of the pamoate on c-Myc expression level in tumor at the 24-hour time point post injection.
The pamoate was mixed with appropriate volume of vehicle solution (0.5% carboxymethylcellulose sodium (CMC-Na, viscosity 400-800 cps, CAS No. 9004-32-4, Sigma-Aldrich, USA) and 0.2% Tween-80 in 10 mM pH 7.4 phosphate buffer saline (PBS)) to get a uniform suspension after 15 min sonication, with final concentration of 5.6 mg/mL. The dose volume was determined by the mice′ body weight collected on the morning of dosing day, calculated by the formula: dose volume (2 mL/kg)×body weight.
Human diffuse large B cell lymphoma cell line SU-DHL-10 was obtained from Cobioer Biotechnology Co., Ltd (China). […]
The tumor was excised with scissors, resuspended in cold cell lysis buffer containing 20 mM Tris (pH7.5), 150 mM NaCl, 1% Triton X-100, 2 mM AEBSF, […] Aprotinin, 130 μM Bestatin, 14 μM E64, 10 μM Leupeptin, 5 mM sodium fluoride, 1 mM sodium pyrophosphate, 1 mM β-glycerophosphate and 1 mM sodium orthovanadate, and then homogenized with handheld homogenizer (Beyotime, China). […] Protein contents were determined using Micro BCA™ Protein Assay Kit (23235, Thermo Scientific, USA). […] Visualization was carried out using the Enhanced Chemi-luminescence Kit (Beyotime, China).

Series [2] concerns SU-DHL-10 human diffuse large B cell lymphoma xenograft. Briefly: Anti-tumor activity against SU-DHL-10 xenograft. The format is in vivo, BALB/c nude mice. On the procedure: For the monobromide continuous i.v. infusion group, the monobromide was dissolved with physiological saline to prepare 12.12 mg/mL clear solution.
For the monobromide i.p. injection group, the monobromide was dissolved with physiological saline to prepare 0.41 mg/mL clear solution. The dose volume was determined by the mice′ body weight collected on the morning of dosing day, calculated by the formula: dose volume (10 mL/kg)×body weight.
For the pamoate i.m. injection group, the pamoate salt was mixed with appropriate volume of vehicle solution (0.5% CMC-Na (viscosity 400-800 cps, CAS No. 9004-32-4), 0.2% Tween-80 in 10 mM pH 7.4 PBS saline) to get a uniform suspension after 15 min sonication, with final concentration of 5.6 mg/mL, similar to the procedure described in Example 14. The dose volume was determined by the mice′ body weight collected on the morning of dosing day, calculated by the formula: dose volume (2 mL/kg)×body weight.
Human diffuse large B cell lymphoma cell line SU-DHL-10 was obtained from Cobioer Biotechnology Co., Ltd (China). The cells were cultured at 37° C. with 5% CO2 in RPMI-1640 (Hyclone, USA) supplemented with 10% heat inactivated fetal bovine serum (Gibco, USA) and 1% GlutaMAX (Gibco, USA). The cells were collected, suspended in PBS at 2×10^8 cells/mL, and then mixed with the equivalent volume of Matrigel® Basement Membrane Matrix (Corning, USA).
Six-week-old female BALB/c-nude mice were purchased from SPF Biotechnology Co., Ltd. (Beijing, China). They were maintained on a standard diet and water throughout the experiments under specific pathogen-free conditions. The cells were cultured in vitro and 0.1×10^8 cells/0.1 mL/mouse were grafted subcutaneously into the flank of NOD-SCID (NVSG) mice (Beijing Viewsolid Biotech Co. LTD), 6-week-old. When the tumor reached about 1 cm in diameter, tumor-bearing mice were sacrificed and tumors were removed and sliced into small fragments (approximately 3×3×3 mm^3/fragment) and re-inoculated into BALB/c nude mice. The mice with a tumor volume (length×width^2×0.5) of 99.28 to 247.10 mm^3 were divided into four groups randomly, using Study Director Software (Studylog Systems, Inc, Version 3.1.399.22, USA) to minimize intragroup and intergroup tumor volume variation.
The first day of administration was designated day 0, and observation continued until day 35. Each group was treated as follows (Table 15).
The vehicle control group received i.m. injection of vehicle solution on day 0, 7 and 14 (Group 1). For 21-day continuous i.v. infusion, an osmotic pump containing the monobromide was implanted in the dorsum of each animal while under anesthesia on day 0, with daily dose of […], approximately 1.6 mg/kg/day (Group 2). The monobromide i.p. injection group was administrated referring to FIVE-DAY-ON, TWO-DAY-OFF procedure on day 0-4, 7-11 and 14-18 (Group 3) per Minoda et. al, Antitumor effect of YM155, a novel small-molecule survivin suppressant, via mitochondrial apoptosis in human MFH/UPS, International Journal of Oncology, 2015, 47:891-899. For the pamoate i.m. injection group, drug suspension was administrated once per week at 11.2 mg/kg, approximately 7 times daily dosage of the monobromide i.v. infusion group, on day 0, 7 and 14 (Group 4).

The conditions of series [3]: pH of about 7.4.
The nature of series [4]: Body weight in SU-DHL-10 xenografted mice. Particulars: for Mean Body Weight ± SEM: Group 4: Form A, 11.2 mg/kg i.m. Day 0, 7, 14.
A short description of series [5]: Photostability test (ICH Option 1, ID65 light).
Protocol: Purity via HPLC, XRPD, and appearance inspection were performed before and after light exposure to determine photostability of the two compounds.
Light source—ICH Option 1 light source standard was adopted. ID65 light, equivalent indoor indirect daylight standard, with 250 W/m^2 light source intensity was used.
Total light exposure and light exposure time−total light exposure was set to 1.44 million lux light quantity (1000 lux×24 h×60 d=1,440,000 lux light quantity). Light stability testing box with ID65 light source of 250 W/m^2 intensity was adopted. According to ICH Option 1 standard, 21.8 hours light exposure could reach 1.2 million lux light quantity. Therefore, 26.2 hours light exposure is needed to reach 1.44 million lux quantity.
Testing—Accurately weight 0.5 g of the monobromide and the pamoate, place in petri dishes (covered with clear wrap film) and spread into a layer no more than 3 mm thickness, separately. Samples were put into light stability testing box, and received total amount of light exposure not less than 1.44 million lux light quantity (ID65 light, 250 W/m^2, 26.2 hours, 25° C., 60% relative humidity). After light exposure, samples were removed for characterization, including appearance inspection, XRPD and purity via HPLC.
The mark [6] stands for this setting: Group 4: Form A, 11.2 mg/kg i.m. Day 0, 7, 14, Day 21.
Setting [7] is: Group 4: Form A, 11.2 mg/kg i.m. Day 0, 7, 14, Day 35.
[8] abbreviates: ID65 light, 250 W/m^2, 25° C./60% RH (ICH Option 1), 26.2 hours.
Setting [9] is: Initial, irradiation time 0 hours.

`COCCn1c2c([n+](Cc3cnccn3)c1C)C(=O)c1ccccc1C2=O.COCCn1c2c([n+](Cc3cnccn3)c1C)C(=O)c1ccccc1C2=O.O=C([O-])c1cc2ccccc2c(Cc2c(O)c(C(=O)[O-])cc3ccccc23)c1O` [pamoate salt]: the “Cleaved Caspase-3 expression in tumors” value in series [1] is “increased”. In series [1], the “Full length Caspase-3 expression in tumors” value is “decreased”. For the same compound, the “Mean Tumor Volume ± SEM” value in series [2] (Group 4: Form A, 11.2 mg/kg i.m. Day 0, 7, 14, Day 0) was 151.26 ± 23.65 mm^3; in series [2] (Group 4: Form A, 11.2 mg/kg i.m. Day 0, 7, 14, Day 7), 0.00 ± 0.00 mm^3; in series [2] (setting [6]), 0.00 ± 0.00 mm^3; in series [2] (Group 4: Form A, 11.2 mg/kg i.m. Day 0, 7, 14, Day 28), 23.61 ± 23.61 **^, N.S., $ mm^3; in series [2] (setting [7]), 180.32 ± 101.25 **^, N.S., $ mm^3. Moreover, the figures for the “Antitumor Activity, percent inhibition of tumor growth (% inh)” value in series [2] (setting [6]) and in series [2] (setting [7]) were 118.27% and 98.22%, respectively. Further, the entries for the “Antitumor Activity, percent regression of the tumor (% reg)” value in series [2] (setting [6]) and in series [2] (setting [7]) were 100% and −19.21%, respectively. Moreover, in series [2] (setting [7]), the “Number of CRs (complete response)” value is on record as 3/6. Besides, the “Safety and efficacy (in words)” value in series [2] (SU-DHL-10 xenograft tumor model) is “good safety and efficacy”. Further, in series [3], the Aqueous solubility entry is listed as “less than 0.02 mg/mL”. Besides, the “Mean Body Weight ± SEM” value is on record as 21.43 ± 0.35 ^N.S. g in series [4] (Day 21) and 22.65 ± 0.30 ^N.S. g in series [4] (Day 35). Besides, the “Body weight decrease (in words)” value in series [4] (each group (Groups 2-4), until day 35) is “no statistically significant decrease in body weight”. For the same compound, the “Photostability (in words)” value in series [5] (ICH Option 1 irradiation, 26.2 hours) was “excellent photostability”. Further, the Description result in series [5] (setting [8]) and in series [5] (setting [9]) was “Purple” throughout. The results for the “Purity % (HPLC)” value in series [5] (setting [8]) and in series [5] (setting [9]) were 99.38% and 99.29%, respectively. The XRPD result in series [5] (setting [8]) is given as “Consistent”. In series [5] (after ICH Option 1 irradiation, 26.2 hours), the “Change in the appearance, XRPD and HPLC purity” value is reported as “no significant change”.
